The subject of data set [1] is E. coli strain MG1655. In words: Growth inhibition (methacrylate ester toxicity) test, E. coli. The format is cell-based. The note with it: Escherichia coli.
In data set [2] the test system is S. cerevisiae strain DSM70449. In words: Growth inhibition (methacrylate ester toxicity) test, S. cerevisiae. The format is cell-based. The settings on record: Saccharomyces cerevisiae, read-out: IC50 range.
Data set [3] can be described thus: logPo/w (1-octanol/water partition coefficient). The format is physicochemical. The text has this:
In embodiments, the organic solvent has a logPo/w value of greater than or equal to 3.0. More preferably, the organic solvent has a logPo/w value of greater than or equal to 3.6, 3.7, 3.8, 3.9 or 4.0. logPo/w is defined as the logarithm of the partition coefficient of a particular solvent between a standardized 1:1 mixture of 1-octanol and water. The present inventors have shown that, with increasing logPo/w value there is a decrease in the resultant microorganism toxicity. Particularly preferred solvents are higher alkanes of C6 and above which may be linear or branched, cyclic alkanes of C7 and above and aromatic compounds, particularly benzene, substituted with one or more substituents of C3 and above, particularly alkyl substituents which may be linear or branched.

Data set [4] in a line: Extraction of BMA and MMA from biotransformation medium into dodecane (GC-FID). Format: physicochemical. The settings on record: for average amount extracted into dodecane: across all samples. On the procedure:
The samples from the BMA/MMA extraction experiments were analysed using gas chromatography under the following operating conditions:
Biomass was harvested from each flask and a separate biotransformation conducted. BMA and MMA levels in dodecane following solvent extraction was quantified by gas chromatography flame ionization detector (GC-FID).
In a 1 I baffled shake flask, a starter culture of 200 ml LB medium containing 200 µg/ml ampicillin was grown for 16.33 hours. The culture was back diluted to OD600 0.2 into 5 1 I baffled shake flasks containing 300 ml fresh LB medium and left to grow at 30° C. and 250 rpm for 23.35 hours. The biomass was then harvested by centrifugation at 5000 rpm and 4° C. for 15 minutes. Each cell pellet was washed with 100 mM sodium phosphate (pH 6.7) and the centrifugation step was repeated. The biomass was resuspended in the required volume of biotransformation medium until an OD600 of 25 was reached.
Biotransformation reactions were conducted in 5×250 ml sealed Schott bottles at 30° C. and 180 rpm for 24 hours.
Samples were taken for GC-FID analysis at 5 hour and 24 hour time points. At each time point 5 ml sample was removed and transferred to a 15 ml falcon tube. Acetonitrile (5 ml) was added in addition to dodecane (1 ml). The mixture was vigorously shaken at >800 rpm for 10 minutes before centrifugation at 3900 rpm and 20° C. for 20 minutes. A 500 μl sample was taken from both the organic and aqueous phases, filtered through a 0.45 μm filter and placed in a crimped lid gas chromatography vial prior to injection.
Quantification of BMA and MMA levels in biotransformation samples was achieved by using external standard calibration […] obtained by preparing volumetric stock solutions of BMA and MMA at known concentrations.

Data set [5] can be described thus: Solubility limit in the fermentation medium. Format: physicochemical. The settings on record: plasma or biological fluid. On the procedure:
In embodiments where the C3-C12 methacrylate ester is butyl methacrylate, it is particularly preferred that the titre of butyl methacrylate in the fermentation medium is at least 120, 130, 140, 150 or 200 mg/l. […] At such a concentration, the need for an additional extraction solvent may be negated.

[6] abbreviates: MG1655, E. coli grown in MSX medium, from final biomass concentrations, read-out: IC50 range.
[7] abbreviates: E. coli MG1655 in LB complex medium, final biomass after 72 hours, concentration that halves MaxOD600, read-out: IC50 range.
Setting [8] is: S. cerevisiae DSM70449 in YEPD complex medium, final biomass after 72 hours, concentration that halves MaxOD600.

Converted amounts (≈) assume the structure as drawn. Read-outs that look alike come from different tables or passages of the source.

Usually IC50 stands for the concentration that inhibits the measured activity by half. Take `C=C(C)C(=O)OC` [MMA, methyl methacrylate]: the concentration for half-maximal inhibition (IC50) in data set [1] (MG1655, 72 h, read-out: IC50 range) was in the range of 3190 to 4250 µg/mL (≈ 31.9 to 42.5 mM); in data set [1] (MG1655, read-out: IC50 range), 3190 to 4250 µg/mL (≈ 31.9 to 42.5 mM); in data set [2] (DSM70449, 72 h), 730 to 1450 µg/mL (≈ 7.29 to 14.5 mM). In data set [3] (1-octanol/water (1:1)), the logPo/w is 0.95. Also, the “average amount extracted into dodecane” value in data set [4] is on record as roughly 10.5%.
As to `C=C(C)C(=O)OC(C)C` [iPMA, isopropyl methacrylate], the values for the IC50 in data set [1] (setting [6]), in data set [1] (setting [7]) and in data set [2] (setting [8]) were 1180 to 1770 µg/mL (≈ 9.21 to 13.8 mM), 1180 to 1770 µg/mL (≈ 9.21 to 13.8 mM) and 660 to 990 µg/mL (≈ 5.15 to 7.72 mM), respectively. The logPo/w in data set [3] amounted to 1.81.
As a reminder, the solubility is the dissolved amount per volume that the medium holds. Low readings indicate a poorly soluble substance, high ones a readily soluble substance. On to `C=C(C)C(=O)OCCCC` [BMA, butyl methacrylate], for which the IC50 is 70 to 110 µg/mL (≈ 0.492 to 0.774 mM) in data set [1] (setting [6]), 70 to 110 µg/mL (≈ 0.492 to 0.774 mM) in data set [1] (setting [7]) and 40 to 70 µg/mL (≈ 0.281 to 0.492 mM) in data set [2] (setting [8]). This compound also returned a logPo/w in data set [3] (1-octanol/water (1:1)) of 2.57. The same compound gave a solubility in data set [5] of roughly 220 µg/mL (≈ 1.55 mM). In addition, the “average amount extracted into dodecane” value in data set [4] is “around 35.6%”. In addition, the “extraction efficiency into dodecane compared to MMA” value in data set [4] (biotransformations 2 and 3 (40 mg/l added)) is 2.7 ×; in data set [4] (biotransformations 4 and 5 (100 mg/l added)) it was 3.3 ×.

These data come from US11981951B2, “Process for the production of methyl methacrylate” (Mitsubishi Chemical UK Limited, priority 2016, dated 2024).
